Structures can show the parent of a compound that is named as a salt.
Test: in vitro pharmaceutical release in simulated gastric fluid and simulated intestinal fluid
Type: physicochemical
Conditions: for cumulative release: from the capsule, simulated gastric fluid (pH=1.7) / simulated intestinal fluid (pH=7.4), time not stated; for release kinetics model fit: release from the fibres, in vitro
Text: FIGS. 7A and 7B illustrate the use of a pharmaceutical delivery device in accordance with an embodiment of the present invention to release two pharmaceuticals at the same time, each with their own unique release profile, in which FIG. 7A is a pharmaceutical release profile of APAP and CM from the various capsule configurations in a simulated gastric fluid (pH=1.7) and a simulated intestinal fluid (pH=7.4), and FIG. 7B is a detailed pharmaceutical release profile for APAP and CM from the composite capsule in the first two hours in a simulated gastric fluid (pH=1.7); and
The capsule sample was immersed into a 100 ml beaker containing 50 mL PBS solution being stirred at 100 rpm. The whole separation process was finished in 169 s and the complete dissolution of PVP finished until 295 s. Also, regulation and controlled movement of each component pharmaceutical layer after separation was achieved by adding Fe3O4 nanoparticles and an external magnetic field. The separated capsule containing the printed outer PCL with embedded Fe3O4 nanoparticles and travel quickly from left to right under an applied external magnet field while the inner layer without any nanoparticles remained stationary (FIG. 5). This travel distance was covered within 3 s at a velocity of 6.7 mm/s. […] This allows for multifunctional uses of the capsule such as for targeted pharmaceutical release using an externally located magnet, and as a magnetic resonance tracer. […] The cumulative release of APAP was more than 90% while the cumulative release of CM was around 70%.

| Compound | release rate comparison (first 2 hours in simulated gastric fluid (pH=1.7), composite capsule) | cumulative release | release kinetics model fit |
| --- | --- | --- | --- |
| CC(=O)Nc1ccc(O)cc1 [APAP, paracetamol] | faster than CM | more than 90% | mostly fit the Higuchi model |
| CN(C)CCC(c1ccc(Cl)cc1)c1ccccn1 (centres unmarked) [CM, chlorpheniramine maleate] |  | around 70% | mostly fit the Higuchi model |
